Data on 26 compounds can be found in patent US8759535B2, “Substituted fused imidazole derivatives, pharmaceutical compositions, and methods of use thereof” (High Point Pharmaceuticals, LLC, priority 2010, dated 2014).

Counter-ions that a name gives are not always drawn.

The first assay deals with HMOX1. Description: HMOX1 Protein Assay (immunostaining of HO-1 in NHLF cells, GE InCell 1000). It is filed as cell-based. As to conditions: Homo sapiens, fold change above DMSO treated cells, 3 μM compound (asterisk), 16 h. As to the method:
Cell Culture. Normal Human Fibroblast (NHLF), were obtained from Lonza. Cultures of cells were maintained in Fibroblast Growth Medium (FGM-2) medium supplemented with 2% fetal bovine serum (FBS), Fibroblast Growth Factor (hFGF-B) 0.5 mL, Insulin 0.5 mL, gentamicin/amphotericin-B 0.5 mL at 37° C. in a humidified atmosphere of 5% CO2. Cells were grown to 80% confluence before treating.
HMOX1 Protein Assay. NHLF cells were grown to 80% confluency and harvested by washing once with HEPES and then trypsinized. Equal numbers (2×10^3 cells per well) of NHLF cells were plated in 384 well optilux tissue culture (BD) plates. Cells were incubated overnight in FGM-2 medium prior to exposure to compound. Cells were treated with either vehicle (DMSO) or compound (dissolved in vehicle) for 16 h. Cells were washed 2× with 1×PBS and fixed with 4% Paraformaldyhyde for 15 min. The fixed cells were then permeabalized with 0.1% Triton X-100 and blocked with 5% BSA in 1×PBS 0.05% Tween-20 for 15 min. HO-1 antibody (abcam) was used for immunostaining at 1:300 dilution in 1% BSA in 1×PBS for 1 hour. Cells were washed 2× with 1×PBS and secondary antibody goat anti-mouse Alexa 488 1:400 dilution (Invitrogen); Hoechst 1:2000 (Invitrogen) in 1% BSA in 1×PBS for 1 hour. Plate was washed 5× with 1×PBS and read at Hoechst Ex.360 […]; Alexa 488 Ex.480 Em. 535 using GE InCell 1000. Results analyzed using GE InCell Analyzer software. Heme oxygenase data represents the fold change above DMSO treated cells.
In general, the fold induction data are reported for 5 μM concentration (i.e., μ-moles of compound to total volume, where the solvent is about 99.2% media and 0.8% DMSO). In some instances, the reported data are for 3 μM concentration, which are indicated by an asterisk (*).
In turn, `C[C@H](CO)OCCNC(=O)c1ccc2c(c1)nc(Nc1nc3ccc(OC(F)(F)F)cc3s1)n2C` [Example 242, 1-Methyl-2-(6-trifluoromethoxy-benzothiazol-2-ylamino)-1H-benzoimidazole-5-carboxylic acid [2-((R)-2-hydroxy-1-methyl-ethoxy)-ethyl]-amide] returned a fold induction at 3 µM of 28.1.

`CO[C@H]1CCCN(C(=O)CNC(=O)c2ccc3c(c2)nc(Nc2nc4ccc(Cl)cc4s2)n3C)C1` [Example 444, 2-(6-Chloro-benzothiazol-2-ylamino)-1-methyl-1H-benzoimidazole-5-carboxylic acid [2-((S)-3-methoxy-piperidin-1-yl)-2-oxo-ethyl]-amide] displayed a fold induction at 3 µM of 32.

As for `CN(C)CCCNC(=O)c1ccc2c(c1)nc(Nc1nc3ccc(OC(F)(F)F)cc3s1)n2C` [Example 348, 1-Methyl-2-(6-trifluoromethoxy-benzothiazol-2-ylamino)-1H-benzoimidazole-5-carboxylic acid (3-dimethylamino-propyl)-amide], the fold induction at 3 µM worked out at 22.

The compound `CN1CCN(CCNC(=O)c2ccc3c(c2)nc(Nc2nc4ccc(OC(F)(F)F)cc4s2)n3C)CC1` [Example 337, 1-Methyl-2-(6-trifluoromethoxy-benzothiazol-2-ylamino)-1H-benzoimidazole-5-carboxylic acid [2-(4-methyl-piperazin-1-yl)-ethyl]-amide] gave a fold induction at 3 µM of 12.7.

With `COCCOCCNC(=O)c1ccc2c(c1)nc(Nc1nc3ccc(C(F)(F)F)cc3s1)n2C` [Example 262, 1-Methyl-2-(6-trifluoromethyl-benzothiazol-2-ylamino)-1H-benzoimidazole-5-carboxylic acid [2-(2-methoxy-ethoxy)-ethyl]-amide], the fold induction at 3 µM was determined as 40.

On to `CC(C)c1ccc2nc(Nc3nc4cc(C(=O)NCC(=O)N(C)C)ccc4n3C)sc2c1` [Example 365, 2-(6-Isopropyl-benzothiazol-2-ylamino)-1-methyl-1H-benzoimidazole-5-carboxylic acid dimethylcarbamoylmethyl-amide], for which the fold induction at 3 µM worked out at 20.1.

In the case of `CCS(=O)(=O)CCNC(=O)c1ccc2c(c1)nc(Nc1nc3ccc(Cl)cc3s1)n2C` [Example 277, 2-(6-Chloro-benzothiazol-2-ylamino)-1-methyl-1H-benzoimidazole-5-carboxylic acid (2-ethanesulfonyl-ethyl)-amide], the fold induction at 3 µM stood at 38.3.

Compound `Cn1c(Nc2nc3ccc(C(F)(F)F)cc3s2)nc2cc(C(=O)NCC(=O)N3CCC[C@@H](O)C3)ccc21` [Example 432, 1-Methyl-2-(6-trifluoromethyl-benzothiazol-2-ylamino)-1H-benzoimidazole-5-carboxylic acid [2-((R)-3-hydroxy-piperidin-1-yl)-2-oxo-ethyl]-amide] returned a fold induction at 3 µM of 27.3.

Compound `Cn1c(Nc2nc3ccc(C(F)(F)F)cc3s2)nc2cc(C(=O)NC[C@H]3CC[C@H](O)CC3)ccc21` [Example 234, 1-Methyl-2-(6-trifluoromethyl-benzothiazol-2-ylamino)-1H-benzoimidazole-5-carboxylic acid (trans-4-hydroxy-cyclohexylmethyl)-amide] displayed a fold induction at 3 µM of 30.9.

The assay is the same for the next values; noted with them: Homo sapiens, fold change above DMSO treated cells, 5 μM compound, 16 h.
`Cn1c(Nc2nc3ccc(OC(F)(F)F)cc3s2)nc2cc(C(=O)NCCF)ccc21` [Example 9, 1-Methyl-2-(6-trifluoromethoxy-benzothiazol-2-ylamino)-1H-benzoimidazole-5-carboxylic acid (2-fluoro-ethyl)-amide] showed a fold induction at 5 µM of 11.2.

For `CCOCCNC(=O)c1ccc2c(c1)nc(Nc1nc3ccc(OC(F)(F)F)cc3s1)n2CCOC` [Example 169, 1-(2-Methoxy-ethyl)-2-(6-trifluoromethoxy-benzothiazol-2-ylamino)-1H-benzoimidazole-5-carboxylic acid (2-ethoxy-ethyl)-amide], the fold induction at 5 µM turned out to be 24.4.

Compound `Cc1nc(-c2ccc3nc(Nc4nc5cc(OC(F)(F)F)ccc5s4)n(C)c3c2)n[nH]1` [Example 198, [1-Methyl-6-(5-methyl-1H-1,2,4-triazol-3-yl)-1H-benzimidazol-2-yl]-(5-trifluoromethoxy-benzothiazol-2-yl)-amine] gave a fold induction at 5 µM of 12.

In turn, `CN(C)[C@@H]1CCN(C(=O)CNC(=O)c2ccc3c(c2)nc(Nc2nc4ccc(OC(F)(F)F)cc4s2)n3C)C1` [Example 415, 1-Methyl-2-(6-trifluoromethoxy-benzothiazol-2-ylamino)-1H-benzoimidazole-5-carboxylic acid [2-((R)-3-dimethylamino-pyrrolidin-1-yl)-2-oxo-ethyl]-amide] yielded a fold induction at 5 µM of 74.8.

In the case of `CC(O)COCCNC(=O)c1ccc2c(c1)nc(Nc1nc3ccc(OC(F)(F)F)cc3s1)n2C` (centres unmarked) [Example 244, 1-Methyl-2-(6-trifluoromethoxy-benzothiazol-2-ylamino)-1H-benzoimidazole-5-carboxylic acid [2-(2-hydroxy-propoxy)-ethyl]-amide], the fold induction at 5 µM turned out to be 28.

In the case of `Cn1c(Nc2nc3ccc(OC(F)(F)F)cc3s2)nc2cc(C(=O)NC3CCN(CC(C)(C)O)C3)ccc21` (centres unmarked) [Example 298, 1-Methyl-2-(6-trifluoromethoxy-benzothiazol-2-ylamino)-1H-benzoimidazole-5-carboxylic acid [1-(2-hydroxy-2-methyl-propyl)-pyrrolidin-3-yl]-amide], the fold induction at 5 µM turned out to be 21.1.

The compound `COC(=O)c1ccc2c(c1)nc(Nc1nc3ccc(SC(F)(F)F)cc3s1)n2C` [Example 132, 1-Methyl-2-(6-trifluoromethylsulfanyl-benzothiazol-2-ylamino)-1H-benzoimidazole-5-carboxylic acid methyl ester] came in with a fold induction at 5 µM of 5.8.

The compound `CCOCCNC(=O)c1ccc2c(c1)nc(Nc1nc3ccc(C(F)(F)F)cc3s1)n2C` [Example 85, 1-Methyl-2-(6-trifluoromethyl-benzothiazol-2-ylamino)-1H-benzoimidazole-5-carboxylic acid (2-ethoxy-ethyl)-amide] had a fold induction at 5 µM of 11.6.

`COCCn1c(Nc2nc3ccc(Cl)cc3s2)nc2cc(C(=O)NCC3CCN(C(=O)CN(C)C)CC3)ccc21` [Example 315, 2-(6-Chloro-benzothiazol-2-ylamino)-1-(2-methoxy-ethyl)-1H-benzoimidazole-5-carboxylic acid [1-(2-dimethylamino-acetyl)-piperidin-4-ylmethyl]-amide] gave a fold induction at 5 µM of 75.7.

Take `CCn1c(Nc2nc3ccc(OC(F)(F)F)cc3s2)nc2cc(S(=O)(=O)C(F)(F)F)ccc21` [Example 199, (1-Ethyl-5-trifluoromethanesulfonyl-1H-benzoimidazol-2-yl)-(6-trifluoromethoxy-benzothiazol-2-yl)-amine]: the fold induction at 5 µM came to 1.5.

The compound `CC(=O)c1ccc2c(c1)nc(Nc1nc3ccc(OC(F)(F)F)cc3s1)n2C` [Example 200, 1-[1-Methyl-2-(6-trifluoromethoxy-benzothiazol-2-ylamino)-1H-benzoimidazol-5-yl]-ethanone] displayed a fold induction at 5 µM of 22.9.

Compound `Cn1c(Nc2nc3ccc(OC(F)(F)F)cc3s2)nc2cc(C(=O)NCCC3CCCCO3)ccc21` (centres unmarked) [Example 263, 1-Methyl-2-(6-trifluoromethoxy-benzothiazol-2-ylamino)-1H-benzoimidazole-5-carboxylic acid [2-(tetrahydro-pyran-2-yl)-ethyl]-amide] gave a fold induction at 5 µM of 19.9.

`Cn1c(Nc2nc3ccc(Cl)cc3s2)nc2cc(C(=O)NCCN)ccc21` [Example 343, 2-(6-Chloro-benzothiazol-2-ylamino)-1-methyl-1H-benzoimidazole-5-carboxylic acid (2-amino-ethyl)-amide hydrochloride] had a fold induction at 5 µM of 21.1.

The compound `Cn1c(Nc2nc3ccc(OC(F)(F)F)cc3s2)nc2cc(C(=O)NCC(C)(C)O)ccc21` [Example 45, 1-Methyl-2-(6-trifluoromethoxy-benzothiazol-2-ylamino)-1H-benzoimidazole-5-carboxylic acid (2-hydroxy-2-methyl-propyl)-amide] gave a fold induction at 5 µM of 12.5.

With `COCCNC(=O)c1ccc2c(c1)nc(Nc1nc3ccc(OC(F)(F)F)cc3s1)n2CCOC` [Example 168, 1-(2-Methoxy-ethyl)-2-(6-trifluoromethoxy-benzothiazol-2-ylamino)-1H-benzoimidazole-5-carboxylic acid (2-methoxy-ethyl)-amide], the fold induction at 5 µM was determined as 21.9.

In turn, `COCCNC(=O)c1ccc2c(c1)nc(Nc1nc3cc(OC(F)(F)F)ccc3s1)n2C` [Example 116, 1-Methyl-2-(5-trifluoromethoxy-benzothiazol-2-ylamino)-1H-benzimidazole-5-carboxylic acid (2-methoxy-ethyl)-amide] returned a fold induction at 5 µM of 22.3.

Turning to `CN[C@@H]1CCN(C(=O)CNC(=O)c2ccc3c(c2)nc(Nc2nc4ccc(OC(F)(F)F)cc4s2)n3C)C1` [Example 413, 1-Methyl-2-(6-trifluoromethoxy-benzothiazol-2-ylamino)-1H-benzoimidazole-5-carboxylic acid [2-((R)-3-methylamino-pyrrolidin-1-yl)-2-oxo-ethyl]-amide hydrochloride], the fold induction at 5 µM is 31.8.

What is called fold induction is the ratio of treated to control signal. A low value points to a weak induction.
